# Measured values: patent US5972958A, “4-aminoalkoxy-1,3-dihydro-benzoimidazol-2-thiones” (American Home Products Corporation, priority 1998, dated 1999)
# Assays:
# dopamine D2 receptor [1] = target: T1, dopamine D2 receptor (Rattus norvegicus, UniProt P61169); experiment: Affinity for the dopamine D-2 receptor, 3H-spiroperidol (D2 Spiper) binding in homogenized limbic brain tissue; set-up: homogenized limbic brain tissue; from tissue; host or cells: limbic brain tissue (homogenate); settings: low-affinity agonist state
# Method: High affinity for the dopamine D-2 receptor was established by the standard experimental test procedure of Fields, et al., Brain Res., 136, 578 (1977) and Yamamura et al., eds., Neurotransmitter Receptor Binding, Raven Press, N.Y. (1978) wherein homogenized limbic brain tissue is incubated with ^3 H-spiroperidol (Spiper.) and various concentrations of test compound, filtered and washed and shaken with Hydrofluor scintillation cocktail (National Diagnostics) and counted in a Packard 460 CD scintillation counter.
# dopamine D2 receptor [2] = target: T1, dopamine D2 receptor; experiment: Affinity for the dopamine autoreceptor, 3H-quinpirole (D2 Quin.) binding in homogenized rat striatal brain tissue; set-up: homogenized rat striatal brain tissue; from tissue; host or cells: rat striatal brain tissue (homogenate); settings: high-affinity agonist state
# Method: Affinity for the dopamine autoreceptor was established by a modification of the standard experimental test procedure of Seemen and Schaus, European Journal of Pharmacology 203: 105-109, 1991, wherein homogenized rat striatal brain tissue is incubated with ^3 H-quinpirole (Quin.) and various concentrations of test compound, filtered and washed and counted in a Betaplate scintillation counter.
# T1 sequence (P61169 whole entry): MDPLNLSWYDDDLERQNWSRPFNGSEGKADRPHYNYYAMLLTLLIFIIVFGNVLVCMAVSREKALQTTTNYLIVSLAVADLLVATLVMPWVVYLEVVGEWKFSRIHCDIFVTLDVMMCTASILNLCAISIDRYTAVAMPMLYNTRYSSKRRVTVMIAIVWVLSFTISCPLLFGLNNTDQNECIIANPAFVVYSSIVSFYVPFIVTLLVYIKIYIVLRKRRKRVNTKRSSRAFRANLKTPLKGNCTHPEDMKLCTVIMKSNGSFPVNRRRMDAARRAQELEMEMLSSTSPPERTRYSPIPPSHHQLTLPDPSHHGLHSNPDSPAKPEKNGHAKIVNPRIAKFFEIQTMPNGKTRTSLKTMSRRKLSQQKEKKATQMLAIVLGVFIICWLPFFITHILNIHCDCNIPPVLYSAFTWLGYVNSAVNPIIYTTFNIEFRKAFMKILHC
Compound,IC50 (dopamine D2 receptor [1]) [nM],IC50 (dopamine D2 receptor [2]) [nM]
"S=c1[nH]c2cccc(OCCNCc3ccccc3)c2[nH]1 [Example 1, 4-(2-Benzylamino-ethoxy)-1,3-dihydro-benzoimidazol-2-thione]",33.4,0.36
"Cc1ccc(CNCCOc2cccc3[nH]c(=S)[nH]c23)cc1 [Example 2, 4-[2-(4-Methyl-benzylamino)-ethoxy]-1,3-dihydro-benzoimidazole-2-thione]",37.7,0.42
S=c1[nH]c2cccc(OCCCNCc3ccccc3)c2[nH]1 [Example 3],1190,14.9
"S=c1[nH]c2cccc(OCCNCc3cccc4ccccc34)c2[nH]1 [Example 4, 4-{2-[(Naphthalen-1-ylmethyl)-amino]-ethoxy}-1,3-dihydro-benzoimidazole-2-thione]",36.9,0.43
"CC(C)(C)c1ccc(CNCCOc2cccc3[nH]c(=S)[nH]c23)cc1 [Example 5, 4-[2-(4-tert-Butyl-benzylamino)-ethoxy]-1,3-dihydro-benzoimidazole-2-thione]",6.87,0.82
"S=c1[nH]c2cccc(OCCNCc3ccc(Cl)cc3)c2[nH]1 [Example 6, 4-[2-(4-Chloro-benzylamino)-ethoxy]-1,3-dihydro-benzoimidazole-2-thione]",88,0.21
"Sc1nc2c(OCCNCc3ccccc3)cc(Cl)cc2[nH]1 [Example 7, 4-(2-Benzylamino-ethoxy)-6-chloro-1,3-dihydro-benzoimidazole-2-thione]",57,0.39
"S=c1[nH]c2cc(Cl)cc(OCCNCc3cccs3)c2[nH]1 [Example 8, 6-Chloro-4-{2-[(thiophen-2-ylmethyl)-amino]-ethoxy}-1,3-dihydro-benzoimidazole-2-thione]",88,0.37
"S=c1[nH]c2cc(Cl)cc(OCCNCc3ccsc3)c2[nH]1 [Example 9, 6-Chloro-4-{2-[(thiophen-3-ylmethyl)-amino]-ethoxy}-1,3-dihydro-benzoimidazole-2-thione]",85,0.18
"S=c1[nH]c2cccc(OCCN3CCc4ccccc4C3)c2[nH]1 [Example 10, 4-[2-(3,4-Dihydro-1H-isoquinolin-2-yl)-ethoxy]-1,3-dihydro-benzoimidazole-2-thione]",234,2.67
